Consider three compounds from patent US20140228423A1, “BIOMARKERS AND THERAPY FOR CANCER” (BAYLOR COLLEGE OF MEDICINE, priority 2011, published 2014).

The test system of one test is OVCAR8 cells. Briefly: High-throughput screen of Prestwick Chemical Library with or without YM155.
The subject of test [1] is Dicer-Pten DKO mouse cancer cell lines. Briefly: Cell viability (CellTiter-Glo) of Dicer-Pten DKO mouse cancer cell lines after miRNA mimic transfection or everolimus. It is filed as cell-based. The following applies: Dicer/Pten double null line from primary mouse serous cancer; everolimus 0.8 uM; 48 h; alone and in combination. As for the experimental part: FIG. 4. Activation of the PI3K pathway in Dicer/Pten DKO mice and effects of mir34c and everolimus on a Dicer/Pten DKO cell line. A, Western blot analysis of DKO fallopian tube tumors showing activation of AKT signaling compared with control fallopian tubes. B, A Dicer/Pten DKO cell line was transfected with miR-34c mimic or a control (miR-Ctrl), treated with everolimus (0.8 uM) or without (DMSO), and examined 48 h later for the effects on cell viability.
To functionally evaluate the roles of miR34c and the mTOR inhibitor everolimus in serous cancers, the inventors first generated 32 cell lines from primary cancers (5 lines), metastatic lesions (11 lines), and ascites fluid (16 lines) of independent Dicer/Pten DKO mice. The effects were analyzed of everolimus and miR-34c mimic alone and in combination on a confirmed Dicer/Pten double null cell line derived from a primary mouse serous cancer. […] Based on the studies, there are the following considerations: 1) MiR-34c and additional miRNAs function to suppress the development of high grade serous carcinomas and the […], and/or 2) Simultaneous pharmacological targeting of mTOR and pathways downstream of miR-34c and other miRNAs leads to therapies to eradicate high-grade serous carcinomas.
Dicer-Pten DKO mouse cancer cell line DKO-1 were transfected with various miRNA mimics including miR-31, miR-100, let-7b, miR-34c or a miRNA control (miR-Ctrl). Cell viability was measured by ATP quantitation-based CellTiter-Glo assay 48 hours after transfection.
FIG. 13A is a cell viability assay. Dicer-Pten DKO mouse cancer cell lines were transfected with miR-34c followed by cell viability assay in 48 hours using CellTiter-Glo assay. FIG. 13B is cell cycle analysis. Forty-eight hours after miR-34c transfection, Dicer-Pten DKO mouse cancer cell lines were fixed in cold 70% ethanol and stained with PI. Cell cycle profiles were determined by flow cytometry and analyzed by flowjo.
For orientation: Cellular ATP, detected with luciferase, serves as a proxy for viable cell number.

Test [2] relates to mouse serous cancer cell lines and the human serous cancer line OVCAR8. Kind of test: Treatment of serous cancer cell lines with YM155 or everolimus. Type of test: cell-based. An excerpt: Well-known as an apoptosis inhibitor, survivin has been identified to contribute to nearly every aspect of cancer from onset to outcome (Altieri, 2008; Martinelli et al., 2006). Nearly all serous, endometrioid, and poorly-differentiated ovarian cancers express surviving (Cohen et al., 2003), the levels of survivin correlate with poor prognostic parameters (Cohen et al., 2003), high levels of survivin are associated with taxol/platinum resistance (Zaffaroni et al., 2002), and women with PTEN-negative/survivin-positive ovarian cancers have the worst prognosis (Sui et al., 2006). […] Based on these findings, the inventors treated mouse serous cancer cell lines and the human serous cancer line OVCAR8 with YM155 or everolimus, an inhibitor of mTOR (FIG. 5A, B). […] These findings indicate that YM155 and everolimus can be used to identify small molecules that synergize with the compounds to eradicate high-grade serous carcinomas in women.

Method for OVCAR8 cells: High-throughput screen for drugs that synergize with YM155. […] Digitonin (0.8 mg/ml) was used as a positive control for ˜100% cell death. […] The relative synergy for each drug was then calculated by subtracting measured cell survival of combinatorial treatment from the calculated c value.
To identify additional small molecules that synergize with YM155, a small library screen was performed.

Consider `C[C@@H]1CC[C@@]2(OC1)O[C@H]1[C@@H](O)[C@H]3[C@@H]4CC[C@H]5C[C@@H](O[C@@H]6O[C@H](CO)[C@H](O[C@@H]7O[C@H](CO)[C@@H](O)[C@H](O[C@@H]8OC[C@@H](O)[C@H](O)[C@H]8O)[C@H]7O[C@@H]7O[C@H](CO)[C@H](O)[C@H](O[C@@H]8O[C@H](CO)[C@@H](O)[C@H](O)[C@H]8O)[C@H]7O)[C@H](O)[C@H]6O)[C@H](O)C[C@]5(C)[C@H]4CC[C@]3(C)[C@H]1[C@@H]2C` [Digitonin], for which, in the test on OVCAR8 cells (0.8 mg/ml, positive control), the cell death was about 100%.

With `COc1cc(/C=C/C(=O)N2CCC=CC2=O)cc(OC)c1OC` [Piperlongumine], the cell survival with OVCAR8 cells (concentration of 6.3 mM) is 10 % of the control.

With `CO[C@H]1C[C@@H]2CC[C@@H](C)[C@@](O)(O2)C(=O)C(=O)N2CCCC[C@H]2C(=O)O[C@H]([C@H](C)C[C@@H]2CC[C@@H](OCCO)[C@H](OC)C2)CC(=O)[C@H](C)/C=C(\C)[C@@H](O)[C@@H](OC)C(=O)[C@H](C)C[C@H](C)/C=C/C=C/C=C/1C` [everolimus, reference compound], the “sensitivity of cells (anti-proliferative, secondary to G1 arrest, and pro-apoptotic effects)” value in test [1] was “exquisitely sensitive”. For the same compound, in test [2], the “sensitivity of the tumors (cell viability)” value is on record as “micromolar levels”.
